Read-outs that look alike come from different tables or passages of the source.
Tests used:
[1] = tested on: human colon cancer (COL-1); assay type: in vivo, mouse; settings: for TGIR (tumor growth inhibition rate, maximum) / minTx (relative tumor volume when reduced to the minimum): COL-1 s.c. in nude mice, at MTD; for TGIR (tumor growth inhibition rate, maximum): TGIR=(1-Tx/Cx)×100, maximum during about 3 weeks; for minTx (relative tumor volume when reduced to the minimum): minimum throughout the test period
Description: (2) Method for measuring the antitumor effect on human colon cancer (COL-1)
COL-1, a human colon cancer, was transplanted subcutaneously into nude mice. When the tumor had grown to a volume of about 100 mm^3, the nude mice were divided into groups of 5 animals so that the average tumor volumes of respective groups were equalized. The respective spicamycin derivatives were administered to test groups at their MTDs, while physiological saline (solvent) containing 1% DMSO and 1% Cremophor EL® was administered to the control group. […] RV is expressed as RV =Vn/Vo where Vn is the tumor volume on day n and Vo is the initial tumor volume at the time treatment was commenced.

[2] = in vivo; design: species or system nude mice (BALB/c nu/nu); settings: mouse, in vivo; intravenous, continuous 5 days, nude mice; maximum dose at which no animal was dead within 2 weeks; read-out: Maximum tolerated dose
Description: (1) Measurement of maximum tolerated dose (MTD) of the spicamycin derivatives in nude mice
The spicamycin derivative was dissolved in dimethylsulfoxide (DMSO) and Cremophor EL® at the same volume as DMSO was added. Physiological saline was added so that the concentration of DMSO and Cremophor EL® was finally adjusted to 1%, respectively, and thus injection liquids of spicamycin derivative in a variety of concentrations were prepared. […] The maximum dose at which no animal was dead was defined as the MTD of the respective derivatives.

[3] = /minimum effective dose (effective: TGIR≥50)

Row | SMILES | TGIR (tumor growth inhibition rate, maximum) [1] | minTx (relative tumor volume when reduced to the minimum) [1] | Therapeutic index ([1]; mouse, in vivo) | MTD at 336 h [2] | Therapeutic index [1, 3]
1 | CCCCCCCCCCCC(=O)NCC(=O)NC1C(O)C(O)C(Nc2ncnc3[nH]cnc23)OC1C(O)CO (centres unmarked) [SPM8, reference compound] | 94 | 0.19 | 4 | 10.4 mg/kg/day | 
2 | O=C(CCCCCCCCCCCCCCCF)NCC(=O)NC1C(O)C(O)C(Nc2ncnc3[nH]cnc23)OC1C(O)CO (centres unmarked) [SPK157, 6-[4,-N-(N'-16-fluorohexadecanoylglycyl)spicaminyl-amino]purine] | 98 | 0.11 |  | 1.6 mg/kg/day | 4
3 | N#CCCCCCCCCCCCCCCCC(=O)NCC(=O)NC1C(O)C(O)C(Nc2ncnc3[nH]cnc23)OC1C(O)CO (centres unmarked) [SPK177, 6-[4'-N-(N'-16-cyanohexadecanoylglycyl)-spicaminyl-amino]purine] | 99 |  | 4 | 13.5 mg/kg/day | 
4 | O=C(CCCCCCCCCCCCBr)NCC(=O)N[C@@H]1[C@@H](O)[C@@H](O)[C@@H](Nc2ncnc3[nH]cnc23)O[C@H]1C(O)CO (some centres unmarked) [SPK276, 6-[4'-N-(N'-13-bromotridecanoylglycyl)spicaminyl-amino]purine] | 96 | 0.16 | 8 | 12 mg/kg/day | 
5 | O=C(CCCCCCCCC#Cc1cccs1)NCC(=O)NC1C(O)C(O)C(Nc2ncnc3[nH]cnc23)OC1C(O)CO (centres unmarked) [SPK262, 6-{4'-N-[N'-11-(2'-thienyl)-10-undecynoylglycyl]spicaminyl-amino}purine] | 99 | 0.03 | 4 | 8 mg/kg/day | 
6 | CCCCCCCCCCCCC(F)(F)C(=O)NCC(=O)NC1C(O)C(O)C(Nc2ncnc3[nH]cnc23)OC1C(O)CO (centres unmarked) [SPK182, 6-[4,-N-(N'-2,2-difluorotetradecanoylglycyl)spicaminyl-amino]purine] | 90 | 0.24 | 8 | 36 mg/kg/day | 
7 | O=C(CCCCCCCCC#Cc1ccoc1)NCC(=O)NC1C(O)C(O)C(Nc2ncnc3[nH]cnc23)OC1C(O)CO (centres unmarked) [SPK266, 6-{4'-N-[N'-11-(3'-furyl)-10-undecynoylglycyl]spicamynyl-amino}purine] | 97 | 0.18 | 8 | 12 mg/kg/day | 
8 | CCCCCCCCCCCCCC[C@@H](OC(C)=O)C(=O)NCC(=O)NC1C(O)C(O)C(Nc2ncnc3[nH]cnc23)OC1C(O)CO (stereo partly drawn) [SPK198, 6-[4'-N-(N'-(R) -2-acetoxyhexadecanoylglycyl)-spicaminyl-amino]purine] | 82 |  |  | 1.5 mg/kg/day | 
9 | O=C(CCCCCCCCCCCBr)NCC(=O)N[C@@H]1[C@@H](O)[C@@H](O)[C@@H](Nc2ncnc3[nH]cnc23)O[C@H]1C(O)CO (some centres unmarked) [SPK152, 6-[4'-N-(N'-12-bromododecanoylglycyl)spicaminyl-amino]purine] | 100 | 0.03 | 8 | 36 mg/kg/day | 
10 | CCCCCCCCCCCCC(=O)NCC(=O)N[C@@H]1[C@@H](O)[C@@H](O)[C@@H](Nc2ncnc3[nH]cnc23)O[C@H]1C(O)CO (some centres unmarked) [SPM9, 6-[4 '-N-(N'-tridecanoylglycyl)spicaminyl-amino]purine] | 99 | 0.05 | 6 | 3.4 mg/kg/day | 
11 | O=C(CCCCCCCCCCI)NCC(=O)NC1C(O)C(O)C(Nc2ncnc3[nH]cnc23)OC1C(O)CO (centres unmarked) [SPK165, 6-[4'-N-(N'-11-iodoundecanoylglycyl)spicaminyl-amino]purine] | 86 |  |  | 24 mg/kg/day | 
12 | CCCCCCCCCCC[C@@H](O)CC(=O)NCC(=O)NC1C(O)C(O)C(Nc2ncnc3[nH]cnc23)OC1C(O)CO (stereo partly drawn) [SPK270, 6-[4'-N-(N'-(R)-3-hydroxytetradecanoylglycyl)spicaminyl-amino]purine] | 94 | 0.21 | 4 | 12 mg/kg/day | 
13 | CCCCCC/C=C\CCCCCCCC(=O)NCC(=O)N[C@@H]1[C@@H](O)[C@@H](O)[C@@H](Nc2ncnc3[nH]cnc23)O[C@H]1C(O)CO (stereo partly drawn) [SPK148, 6-[4,-N-(N'-cis-9-hexadecenoylglycyl)spicaminyl-amino]purine] | 94 | 0.21 |  | 3.4 mg/kg/day | 4
14 | O=C(CCCCCCCCCCCOc1ccccc1)NCC(=O)NC1C(O)C(O)C(Nc2ncnc3[nH]cnc23)OC1C(O)CO (centres unmarked) [SPK249, 6-[4'-N-(N'-12-phenoxydodecanoylglycyl)-spicaminyl-amino]purine] | 88 | 0.26 | 4 | 3 mg/kg/day | 
15 | C=CCCCCCCCCCC(=O)NCC(=O)N[C@@H]1[C@@H](O)[C@@H](O)[C@@H](Nc2ncnc3[nH]cnc23)O[C@H]1C(O)CO (some centres unmarked) [SPK44, 6-[4 '-N-(N'-11-dodecenoylglycyl)spicaminyl-amino]purine] | 94 | 0.16 |  | 4 mg/kg/day | 4
16 | CC(C)CCCCCCCCC(=O)NCC(=O)N[C@@H]1[C@@H](O)[C@@H](O)[C@@H](Nc2ncnc3[nH]cnc23)O[C@H]1C(O)CO (some centres unmarked) [SPK9, 6-[4'-N-(N'-10-methylundecanoylglycyl)spicaminyl-amino]purine] | 99 | 0.05 | 4 | 6 mg/kg/day | 
17 | CCCCCCCCCCCCCCC(O)C(=O)NCC(=O)NC1C(O)C(O)C(Nc2ncnc3[nH]cnc23)OC1C(O)CO (centres unmarked) [SPK112, 6-[4'-N-(N'-2-hydroxyhexadecanoylglycyl)spicaminyl-amino]purine] | 82 |  |  | 0.85 mg/kg/day | 4
18 | CCCCCCCC/C=C/C=C/C(=O)NCC(=O)N[C@@H]1[C@@H](O)[C@@H](O)[C@@H](Nc2ncnc3[nH]cnc23)O[C@H]1C(O)CO (stereo partly drawn) [SPK281, 6-[4'-N-(N'-trans,trans-2,4-tridecadienoylglycyl)spicaminyl-amino]purine] | 99 | 0.06 | 8 | 18 mg/kg/day | 
19 | O=C(CCCCCCCCCCCCCF)NCC(=O)N[C@@H]1[C@@H](O)[C@@H](O)[C@@H](Nc2ncnc3[nH]cnc23)O[C@H]1C(O)CO (some centres unmarked) [SPK279, 6-[4,-N-(N,-14-fluorotetradecanoylglycyl)spicaminyl-amino]purine] | 93 | 0.25 | 8 | 6 mg/kg/day | 
20 | CCCCCCCCCCCCCC(O)CC(=O)NCC(=O)NC1C(O)C(O)C(Nc2ncnc3[nH]cnc23)OC1C(O)CO (centres unmarked) [SPK115, 6-[4'-N-(N'-3-hydroxyhexadecanoylglycyl)-spicaminyl-amino]purine] | 99 | 0.08 |  | 3 mg/kg/day | 4
21 | CCCCCCCCCCC/C=C/C(=O)NCC(=O)N[C@@H]1[C@@H](O)[C@@H](O)[C@@H](Nc2ncnc3[nH]cnc23)O[C@H]1C(O)CO (stereo partly drawn) [SPK156, 6-[4'-N-(N'-trans-2-tetradecenoylglycyl)spicaminyl-amino]purine] | 92 |  | 4 | 3 mg/kg/day | 
22 | C=CCCCCCCCCCCC(=O)NCC(=O)N[C@@H]1[C@@H](O)[C@@H](O)[C@@H](Nc2ncnc3[nH]cnc23)O[C@H]1C(O)CO (some centres unmarked) [SPK142, 6-[4'-N-(N'-12-tridecenoylglycyl)spicaminyl-amino]purine] | 99 | 0.09 | 4 | 6 mg/kg/day | 
23 | CCCCCCCCCCCCCCC(F)C(=O)NCC(=O)NC1C(O)C(O)C(Nc2ncnc3[nH]cnc23)OC1C(O)CO (centres unmarked) [SPK233, 6-[4'-N-(N'-2-fluorohexadecanoylglycyl)spicaminyl-amino]purine] | 96 | 0.13 |  | 2.7 mg/kg/day | 4
24 | CCCCS(=O)(=O)OCCCCCCCCCCCC(=O)NCC(=O)NC1C(O)C(O)C(Nc2ncnc3[nH]cnc23)OC1C(O)CO (centres unmarked) [SPK232, 6-[4'-N-(N'-12-butanesulfonyloxydodecanoylglycyl)spicaminyl-amino]purine] | 96 |  | 4 | 24 mg/kg/day | 
25 | O=C(CCCCCCCCCCCCCl)NCC(=O)N[C@@H]1[C@@H](O)[C@@H](O)[C@@H](Nc2ncnc3[nH]cnc23)O[C@H]1C(O)CO (some centres unmarked) [SPK278, 6-[4'-N-(N'-13-chlorotridecanoylglycyl)spicaminyl-amino]purine] | 92 | 0.21 | 8 | 12 mg/kg/day | 

Source: US5461036A, “Spicamycin derivatives and their use as anticancer agents” (priority 1991, dated 1995)
